Experimental data reported in paper PMC11392399, “The final walk with preptin” (PLOS ONE, 2024).
Blank lines part the entries; values can stand above or below the substance they belong to. No end group written: not given here.

Key:
[1] = test system: phosphorylation of Akt in MC3T3-E1 preosteoblasts; assay: Stimulation of phosphorylation of Akt, MC3T3-E1 preosteoblasts; format: cell-based, mouse; settings: 10^-8M, 5 min at RT, Western blot, n = 4, one-way ANOVA
Protocol: For measuring activation of intracellular signaling pathways, 40 000 of MC3T3-E1, U-2 OS and 3T3-R- cells per well and 100 000 of MIN6 cells per well were seeded in a 24-well plate, two days before stimulation. Cells’ stimulations were done after overnight starvation in a clean culture medium without serum. Cells were stimulated using preptins and their analogs at 10^-8M concentration for 5 min at RT. Cells were washed with PBS and froze immediately. Samples for immunoblots were prepared in Sample lysis buffer (62,5 mM Tris/HCl, 2 % SDS (w/v), 10 % glycerol (v/v), 0,01 % Brom-phenol Blue (w/v), 0,1M DTT, 50mM NaF, 1mM Na3VO4, 0,5 % protease inhibitory complex (v/v), pH 6,8).
Western blots were similarly used to study signaling pathways activated by our preptins in all cell lines mentioned above. Proteins were routinely analyzed using immunoblotting. […] The data are expressed as the contribution of target phosphorylation relative to non-stimulated cells (MC3T3-E1, U-2 OS, 3T3-R- and MIN6). Mean ± S.D. (n = 4) values were calculated. The significance of the changes in stimulation of phosphorylation in relation to unstimulated cells was calculated, using the One-way-ANOVA comparing all preptins and their analogs versus control non-stimulated cells.

[2] = test system: IR-A in IM-9 lymphocytes; assay: Competitive binding assay for IR-A with [125I]-monoiodotyrosyl-TyrA14-insulin; parameters: species or system human; settings: tracer 125I-insulin, only at the concentrations > 10^-6M, n ≥ 3
Source text: (§1) We also tested whether non-labeled preptins can bind to any of receptors for IGF2 (i.e. IR, IGF1R and IGF2R) in competitive binding assays, employing ^125I-labeled human insulin, IGF1 or IGF2. To determine binding to the IGF1R, we used mouse fibroblasts transfected with human IGF1R and with deleted mouse IGF1R (R+39 cells), according to Hexnerova et al.. We used non-transfected 3T3 fibroblasts to determine binding to IGF2R, because these cells contain essentially only IGF2R [5] and we used human IM-9 lymphocytes to determine affinity for IR-A [31].
(§2) Binding affinities of ligands for IGF1R were determined with [^125I]-Iodotyrosyl-IGF1 (2,614 Ci/mmol) prepared in the IOCB radioisotope laboratory by a procedure described in Kertisova et al.. Binding affinities for IR-A were determined with [^125I]-monoiodotyrosyl-TyrA14-insulin (2,200 Ci/mmol), prepared as described by Asai et al.. […]
(§3) The dissociation constant (Kd) values were determined with GraphPad Prism 8, using a nonlinear regression method, a one-site fitting program and considering the potential depletion of free ligand. […] Relative binding affinities were calculated as (Kd of the native hormone/Kd of analog) × 100 (in %). The relative binding affinity S.D. values of analogs were calculated as S.D. = Kd of the native hormone/Kd of peptide ×100 × √[(S.D. native/Kd native)^2 + (S.D. analog/Kd analog)^2].

[3] = test system: intracellular calcium in MIN6 pancreatic beta cells; assay: Changes in intracellular calcium, MIN6 cells; format: cell-based, mouse; settings: 10^−4 M, Fluo-8 fluorescence, (Fmax−F0)/F0, one-way ANOVA
Protocol: The day before the experiment, U-2 OS, MC3T3-E1, MIN6 and cAMP-HEK cells were seeded 6 000 (for osteoblastic cell lines U-2 OS, MC3T3-E1), 10 000 (for cAMP-HEK cells) or 30 000 (MIN6) cells per well in a black 384-well format micro plate with transparent bottom (Cat.#: 142761, Nunc, Thermo Fisher Scientific, USA). On the next day, the cultivation media was exchanged for assay buffer, consisting of HBSS (Cat.#: H6648-500ML, Sigma-Aldrich, Merck, Germany), 20 mM HEPES (Cat.#: L0180-100, Biowest, France), 2.5 mM Probenecid (Cat.#: P8761, Sigma-Aldrich, Merck, Germany), adjusted for pH 7.4 and supplemented with 4.77 μM CalciFluor™ Fluo-8, AM (Cat.#: 1345980-40-6, Santa Cruz Biotechnology, USA). After 45 min incubation with assay buffer in 37°C and 5% CO2, the cells were incubated at RT in a dark place for another 15 minutes. After this time, preptin and its analogs were added by the Agilent Bravo Automated Liquid Handling Platform (Agilent Technologies, USA). The kinetics were measured by the Spark® multimode reader from Tecan (Tecan Group Ltd., Switzerland) for 10 min (approximately 45 cycles, excitation 485 nm, emission 535 nm, band width 10 nm). Before each kinetics, the background fluorescence (F0) was measured and the result was calculated as (Fmax−F0)/F0, where Fmax corresponds to the maximum response upon stimulation by the compounds. […]

[4] = test system: intracellular calcium in U-2 OS osteoblasts; assay: Changes in intracellular calcium, U-2 OS osteoblasts; format: cell-based, human; settings: U-2 OS cells; 10^−4 M; Fluo-8 fluorescence, (Fmax−F0)/F0; one-way ANOVA
Protocol: The day before the experiment, U-2 OS, MC3T3-E1, MIN6 and cAMP-HEK cells were seeded 6 000 (for osteoblastic cell lines U-2 OS, MC3T3-E1), 10 000 (for cAMP-HEK cells) or 30 000 (MIN6) cells per well in a black 384-well format micro plate with transparent bottom (Cat.#: 142761, Nunc, Thermo Fisher Scientific, USA). On the next day, the cultivation media was exchanged for assay buffer, consisting of HBSS (Cat.#: H6648-500ML, Sigma-Aldrich, Merck, Germany), 20 mM HEPES (Cat.#: L0180-100, Biowest, France), 2.5 mM Probenecid (Cat.#: P8761, Sigma-Aldrich, Merck, Germany), adjusted for pH 7.4 and supplemented with 4.77 μM CalciFluor™ Fluo-8, AM (Cat.#: 1345980-40-6, Santa Cruz Biotechnology, USA). After 45 min incubation with assay buffer in 37°C and 5% CO2, the cells were incubated at RT in a dark place for another 15 minutes. After this time, preptin and its analogs were added by the Agilent Bravo Automated Liquid Handling Platform (Agilent Technologies, USA). The kinetics were measured by the Spark® multimode reader from Tecan (Tecan Group Ltd., Switzerland) for 10 min (approximately 45 cycles, excitation 485 nm, emission 535 nm, band width 10 nm). Before each kinetics, the background fluorescence (F0) was measured and the result was calculated as (Fmax−F0)/F0, where Fmax corresponds to the maximum response upon stimulation by the compounds. Each compound was tested in concentration 10^−4 M.

[5] = test system: hBMSC-TERT; assay: Osteoblast differentiation of hBMSC-TERT, alkaline phosphatase (ALP) activity assay; format: cell-based, human; settings: for ALP activity normalized to cell viability, compared to unstimulated cells: 100 ng/ml, 500 ng/ml and 1 ug/ml, day 7 of OB differentiation, changes not significant; for osteoblast differentiation of hBMSCs: summary in the conclusions
Protocol: hBMSC-TERT were plated at a density of 20 000 cells/cm^2 (Alizarin Red S staining) and 5 000 cells/well (ALP activity assay) in MEM medium (Gibco), supplemented with 10 % FBS (Gibco) and 1 % P/S (Gibco). One day after seeding, the medium was replaced with OB induction medium, composed of basal medium, supplemented with 10 mM B-glycerophosphate (Sigma-Aldrich), 10 nM dexamethasone (Sigma-Aldrich), 50 μg/mL vitamin C (Sigma-Aldrich), 10 nM vitamin D3 (Sigma-Aldrich) and treated with 100 ng/ml, 500 ng/ml and 1 ug/ml IGF2, IGF1, IGF2, preptin or vehicle (acetic acid) as a control. The medium was changed every other day for 7 days (ALP activity assay) or 10 days (Alizarin Red S staining).
ALP activity and cell viability assay were quantified at Day 7 of OB differentiation, in order to normalize the ALP activity data to the number of viable cells.
Cell viability assay was measured using a Cell Titer-Blue Assay Reagent (Promega) at fluorescence intensity (579Ex/584Em). ALP activity was detected by absorbance at 405 nm, using p-nitrophenyl phosphate (Sigma-Aldrich) as substrate.

[6] = test system: human primary osteoblasts; settings: 8 days, ref [17] Bosetti et al.; cited from earlier work
[7] = test system: IGF2R; assay: Competitive binding assay for IGF2R with [125I]-monoiodotyrosyl-Tyr2-IGF2; parameters: species or system mouse; settings: R- cells with IGF2R; tracer 125I-IGF2; n ≥ 3
Source text: as §1, §2, §3

[8] = test system: human IGF1R; assay: Competitive binding assay for IGF1R with [125I]-Iodotyrosyl-IGF1; settings: fibroblasts with IGF1R (R+39 cells); tracer 125I-IGF1; n ≥ 3
Source text: as §1, §2, §3

[9] = test system: intracellular calcium in U-2 OS cells; settings: previous paper, different method, ref [21]; cited from earlier work
Source text: It is well known that Ca^2+ regulates numerous physiological cellular processes as a second messenger. It plays a vital role in the regulation of cell proliferation, and its increased level is critical for secretagogue-induced insulin release in pancreatic beta cells. […] If preptin or its analogs were proficient insulin secretagogues or had any effect on bone cells, we would e ...

[10] = test system: cAMP in U-2 OS osteoblasts; assay: Changes in cAMP levels (GloSensor), U-2 OS osteoblasts; format: cell-based, human; settings: 10^−4 M, GloSensor luminescence, (Lmax−L0)/L0, forskolin positive control
Protocol: Intracellular cAMP concentration was measured using Promega’s Glosensor on osteoblasts U-2 OS, pancreatic β-cells MIN6 and control cAMP-HEK cells (with stable transfection of F22 plasmid as described above). U-2 OS cells were transfected with F22 plasmid (pGloSensor™-22F, Promega, USA, 6.1 μg of plasmid per 1 million cells) using X-tremeGENE (Sigma-Aldrich, Germany). The ratio of plasmid and transfection reagent was 1:3 (plasmid: X-tremeGENE, m/v). The MIN6 cells were transfected with F22 plasmid in the same concentration as U-2 OS using electroporation by the Invitrogen™ Neon™ Transfection System Instrument (Thermo Fisher Scientific, USA, transfection conditions: 1400 V, 20 ms, 1 pulse). […]
After 24 hours (U-2 OS and cAMP-HEK cells) or 48 hours, respectively (MIN6 cells), cultivation media was changed for assay buffer (HBSS buffer with 20 mM HEPES and 2% (v/v) (cAMP-HEK, U-2 OS cells) or 6% (v/v), respectively (MIN6 cells), GloSensor™ reagent stock solution). The plate was incubated in the dark for 1–2 hours at RT and luminescence was measured until a stable signal was observed (L0). […] The luminescence kinetics were measured by Spark® for 30 min. The result was calculated as (Lmax−L0)/L0, where Lmax corresponds to the maximum response upon stimulation by the compounds. […]

Substance: WKQSTQRL-NH2 [peptide 12, Human preptin fragment]
phosphorylation of Akt relative to non-stimulated cells [1]: Significantly lower phosphorylation of Akt

Substance: DVSTPPTVLPDNFPRYPVGKFFQYDTWKQSTQRL [peptide 1, native human preptin]
binding to IR-A [2]: weak binding

Substance: DVTTSQAVLPDDFPRY [peptide 17, Mouse preptin fragment]
changes in intracellular calcium relative to non-stimulated cells [3]: completely inhibited calcium secretion

Substance: DVSTSQAVLPDDFPRYPVGZFFQYDTWRQSAGRL [peptide 15, Mouse preptin with Aib (Z) at position 20]
changes in intracellular calcium relative to non-stimulated cells [4]: significant increase in intracellular calcium levels

Substance: IGF2: insulin-like growth factor 2, comparator hormone
ALP activity normalized to cell viability, compared to unstimulated cells [5]: signs of higher ALP activity | osteoblast differentiation of hBMSCs [5]: neither preptin nor IGF2 significantly increased | change in ALP activity [6]: no significant effects

Substance: preptin: 34-amino acid peptide derived from pro-IGF2; species or peptide number not stated at the place (DVSTPPTVLPDNFPRYPVGKFFQYDTWKQSTQRL; Preptin; UniProt P01344 93-126, looked up)
ALP activity normalized to cell viability, compared to unstimulated cells [5]: signs of higher ALP activity | osteoblast differentiation of hBMSCs [5]: neither preptin nor IGF2 significantly increased | displacement of native ligand from IGF2R [7]: did not displace native ligands even at the highest concentrations used | displacement of native ligand from IGF1R [8]: did not displace native ligands even at the highest concentrations used | changes in intracellular calcium levels [9]: able to induce changes in intracellular calcium levels | change in ALP activity [6]: no significant effects

Substance: TWKQSTQRL-NH2 [peptide 13, Human preptin fragment]
changes in cAMP levels relative to non-stimulated cells [10]: significant decrease of cAMP | phosphorylation of Akt relative to non-stimulated cells [1]: Significantly lower phosphorylation of Akt

Substance: FPRYPVGKFFQYNTW-NH2 [peptide 18, Mouse preptin fragment, amino acids 13–27, amidated C-end]
changes in intracellular calcium relative to non-stimulated cells [4]: significant increase in intracellular calcium levels

binding to IR-A [2]: weak binding
Substance: PVGKFFQYDTWKQSTQRL [peptide 3, Human preptin fragment]
